SMILES strings stand for the structures.

The assay concerns the target RBP4 (Homo sapiens, UniProt P02753). Conditions: read-out: RBP4 – SPA IC50.

Consider `O=C(c1nc2ncccn2n1)N1C[C@H]2C[C@@H](c3ccccc3OC(F)(F)F)C[C@H]2C1` [compound 93], for which the IC50 stood at 41 nM. As to `Cc1cc(-c2nnn[nH]2)nc(N2C[C@H]3C[C@@H](c4ccccc4C(F)(F)F)C[C@H]3C2)n1` [BPN-15585], the IC50 is 7.5 nM.
